Test results from ChEMBL document CHEMBL4028900, “Design of Novel 3-Pyrimidinylazaindole CDK2/9 Inhibitors with Potent In Vitro and In Vivo Antitumor Efficacy in a Triple-Negative Breast Cancer Model” (J Med Chem, 2017).
In brackets after ≈: the same amount, converted by molar mass.

What was measured:
HCT-116 = test: Antiproliferative activity against human HCT116 cells after 72 hrs by SRB assay; conditions: HCT-116, 72 h
SH-SY5Y = test: Antiproliferative activity against human SH-SY5Y cells after 24 hrs by MTT assay; format: functional, cell-based
CDK2/Cyclin A2 = CDK2/Cyclin A2 (Homo sapiens, UniProt P24941); test: Inhibition of CDK2/cyclin A (unknown origin) using histone H1 as substrate after 30 mins in presence of [33P]-gamma-ATP; format: protein-complex assay
CDK9/cyclin T1 = CDK9/cyclin T1 (Homo sapiens, UniProt P50750); format: protein-complex assay
[1] = molecular target: CDK2/Cyclin A2 (Homo sapiens) (UniProt P24941+P20248); conditions: at 500 nM
Description: Inhibition of CDK2/cyclin A (unknown origin) at 500 nM using histone H1 as substrate after 30 mins in presence of [33P]-gamma-ATP relative to control

[2] = molecular target: CDK9/cyclin T1 (Homo sapiens) (UniProt O60563+P50750); conditions: at 500 nM
[3] = Thermodynamic equilibrium solubility of the compound in water
[4] = Thermodynamic equilibrium solubility of the compound in PBS
[5] = Thermodynamic equilibrium solubility of the compound in SGF
[6] = Thermodynamic equilibrium solubility of the compound in SIF
[7] = Plasma concentration in BALB/c mouse at 2.5 mg/kg, iv at […] by LC/MS-MS analysis; format: ADME, organism-based
[8] = Plasma concentration in BALB/c mouse at 2.5 mg/kg, iv at 0.25 hrs by LC/MS-MS analysis; format: ADME, organism-based
[9] = Plasma concentration in BALB/c mouse at 2.5 mg/kg, iv at 0.5 hrs by LC/MS-MS analysis; format: ADME, organism-based
[10] = Plasma concentration in BALB/c mouse at 2.5 mg/kg, iv at 1 hr by LC/MS-MS analysis; format: ADME, organism-based
[11] = Plasma concentration in BALB/c mouse at 2.5 mg/kg, iv at 2 hrs by LC/MS-MS analysis; format: ADME, organism-based
[12] = Plasma concentration in BALB/c mouse at 2.5 mg/kg, iv at 4 hrs by LC/MS-MS analysis; format: ADME, organism-based
[13] = Initial concentration in BALB/c mouse at 2.5 mg/kg, iv by LC/MS-MS analysis; format: ADME, organism-based; conditions: in vivo
[14] = AUC (0 to t) in BALB/c mouse at 2.5 mg/kg, iv by LC/MS-MS analysis; format: ADME, organism-based; conditions: in vivo
[15] = Half life in BALB/c mouse at 2.5 mg/kg, iv by LC/MS-MS analysis; format: ADME, organism-based; conditions: in vivo
[16] = Volume of distribution in BALB/c mouse at 2.5 mg/kg, iv by LC/MS-MS analysis; format: ADME, organism-based; conditions: in vivo
[17] = Clearance in BALB/c mouse at 2.5 mg/kg, iv by LC/MS-MS analysis; format: ADME, organism-based; conditions: in vivo
[18] = AUC (0 to infinity) in BALB/c mouse at 2.5 mg/kg, iv by LC/MS-MS analysis; format: ADME, organism-based; set-up: dose 2.5 mg/kg, time infinity, route intravenous; conditions: in vivo
MDA-MB-231 = test: Antiproliferative activity against human MDA-MB-231 cells
MDA-MB-468 = test: Antiproliferative activity against human MDA-MB-468 cells
T47D = test: Antiproliferative activity against human T47D cells after 72 hrs by SRB assay
BT-549 = test: Antiproliferative activity against human BT549 cells
MCF7 = test: Antiproliferative activity against human MCF7 cells
4T1 = test: Antiproliferative activity against mouse 4T1 cells after 24 hrs by MTT assay; conditions: 4T1, 24 h
[19] = Antiproliferative activity against HEK cells; conditions: Homo sapiens, HEK293

CDK9/cyclin T1, sequence (O60563 whole entry): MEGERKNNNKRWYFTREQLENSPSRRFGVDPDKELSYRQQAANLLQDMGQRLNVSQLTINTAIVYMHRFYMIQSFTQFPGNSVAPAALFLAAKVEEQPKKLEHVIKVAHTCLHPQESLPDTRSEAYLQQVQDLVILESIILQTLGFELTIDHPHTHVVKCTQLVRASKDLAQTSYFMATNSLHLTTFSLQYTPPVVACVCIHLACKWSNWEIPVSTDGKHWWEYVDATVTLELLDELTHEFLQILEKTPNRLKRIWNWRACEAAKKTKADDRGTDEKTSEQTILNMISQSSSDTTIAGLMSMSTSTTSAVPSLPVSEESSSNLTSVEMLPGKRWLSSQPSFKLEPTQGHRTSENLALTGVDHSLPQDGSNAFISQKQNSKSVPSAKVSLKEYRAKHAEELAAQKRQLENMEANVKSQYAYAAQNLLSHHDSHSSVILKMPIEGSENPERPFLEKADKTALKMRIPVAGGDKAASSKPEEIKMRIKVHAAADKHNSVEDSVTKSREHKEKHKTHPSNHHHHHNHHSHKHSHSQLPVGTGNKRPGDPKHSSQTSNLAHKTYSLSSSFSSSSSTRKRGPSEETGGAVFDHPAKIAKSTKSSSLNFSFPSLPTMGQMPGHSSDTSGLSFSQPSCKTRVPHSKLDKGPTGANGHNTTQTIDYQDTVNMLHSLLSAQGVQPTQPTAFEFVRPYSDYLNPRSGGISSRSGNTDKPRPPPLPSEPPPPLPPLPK
CDK9/cyclin T1, sequence (P50750 whole entry): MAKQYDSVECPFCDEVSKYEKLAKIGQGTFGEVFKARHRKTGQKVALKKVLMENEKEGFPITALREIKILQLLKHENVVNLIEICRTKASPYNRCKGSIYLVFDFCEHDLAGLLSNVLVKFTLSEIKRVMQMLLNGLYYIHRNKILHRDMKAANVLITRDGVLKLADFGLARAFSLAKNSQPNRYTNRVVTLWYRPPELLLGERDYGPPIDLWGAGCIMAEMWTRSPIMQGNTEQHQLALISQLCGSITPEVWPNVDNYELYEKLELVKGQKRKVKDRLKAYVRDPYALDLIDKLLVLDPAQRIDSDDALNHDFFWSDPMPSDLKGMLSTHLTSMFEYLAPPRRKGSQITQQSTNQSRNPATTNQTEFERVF

## Nc1nccc(-c2c[nH]c3ncc(-c4ccsc4)cc23)n1
HCT-116
  IC50: 600 nM
SH-SY5Y
  IC50: 3300 nM
CDK2/Cyclin A2
  IC50: 1 nM
CDK9/cyclin T1
  IC50: 35 nM
[1]
  inhibition: 95.1%
[2]
  inhibition: 93.5%

## CN1CCN(c2nccc(-c3c[nH]c4ncccc34)n2)CC1
CDK2/Cyclin A2
  IC50: 350 nM
CDK9/cyclin T1
  IC50: 700 nM
[1]
  inhibition: 71.6%
[2]
  inhibition: 70.5%

## Nc1nccc(-c2c[nH]c3ncc(-c4ccc(OC(F)(F)F)cc4)cc23)n1
HCT-116
  IC50: 1500 nM
SH-SY5Y
  IC50: 400 nM

## Cn1cncc1S(=O)(=O)n1cc(-c2ccnc(N)n2)c2cccnc21
[1]
  inhibition: 55.2%
[2]
  inhibition: 50.3%

## c1ccc(CCNc2nccc(-c3c[nH]c4ncccc34)n2)cc1
HCT-116
  IC50: 560 nM
CDK2/Cyclin A2
  IC50: 10 nM
CDK9/cyclin T1
  IC50: 20 nM
[3]
  solubility thermodynamic: < 5 µg/mL
[4]
  solubility thermodynamic: < 5 µg/mL
[5]
  solubility thermodynamic: 1500 µg/mL (≈ 4760 µM)
[6]
  solubility thermodynamic: > 5 µg/mL
[1]
  inhibition: 92.5%
[2]
  inhibition: 92.4%

## COc1ccc(CCNc2nccc(-c3c[nH]c4ncccc34)n2)cc1
HCT-116
  IC50: 9500 nM
CDK2/Cyclin A2
  IC50: 4 nM
CDK9/cyclin T1
  IC50: 38 nM
[1]
  inhibition: 97.7%
[2]
  inhibition: 91%

## Nc1nccc(-c2c[nH]c3ncc(-c4cccnc4)cc23)n1
HCT-116
  IC50: 700 nM
SH-SY5Y
  IC50: 1000 nM
[3]
  solubility thermodynamic: 80 µg/mL (≈ 277 µM)
[4]
  solubility thermodynamic: 200 µg/mL (≈ 694 µM)
[5]
  solubility thermodynamic: 800 µg/mL (≈ 2770 µM)
[6]
  solubility thermodynamic: 1 µg/mL (≈ 3.47 µM)

## Nc1nccc(-c2cn(S(=O)(=O)c3ccc(C(F)(F)F)cc3)c3ncccc23)n1
[1]
  inhibition: 28.4%
[2]
  inhibition: 50.9%

## Cc1cccc(-c2cnc3[nH]cc(-c4ccnc(N)n4)c3c2)c1
[1]
  inhibition: 84.8%
[2]
  inhibition: 82.6%

## Nc1nccc(-c2cn(S(=O)(=O)c3ccc(Br)cc3)c3ncccc23)n1
[1]
  inhibition: 28.1%
[2]
  inhibition: 31.2%

## Nc1nccc(-c2c[nH]c3ncc(-c4cccc5ccccc45)cc23)n1
CDK2/Cyclin A2
  IC50: 182 nM
CDK9/cyclin T1
  IC50: 159 nM
[1]
  inhibition: 79.2%
[2]
  inhibition: 84%

## c1cnc2[nH]cc(-c3ccnc(N4CCOCC4)n3)c2c1
CDK2/Cyclin A2
  IC50: 231 nM
CDK9/cyclin T1
  IC50: 642 nM
[1]
  inhibition: 73.3%
[2]
  inhibition: 72.9%

## COc1ccc2ccccc2c1-c1cnc2[nH]cc(-c3ccnc(N)n3)c2c1
CDK2/Cyclin A2
  IC50: 1090 nM
CDK9/cyclin T1
  IC50: 625 nM
[1]
  inhibition: 24.2%
[2]
  inhibition: 47.4%

## CSc1ccccc1-c1cnc2[nH]cc(-c3ccnc(N)n3)c2c1
CDK2/Cyclin A2
  IC50: 24 nM
CDK9/cyclin T1
  IC50: 45 nM
[1]
  inhibition: 78.7%
[2]
  inhibition: 93.7%

## c1ccc2c(CCNc3nccc(-c4c[nH]c5ncccc45)n3)c[nH]c2c1
CDK2/Cyclin A2
  IC50: 10 nM
CDK9/cyclin T1
  IC50: 52 nM
[1]
  inhibition: 89.7%
[2]
  inhibition: 88%

## CCc1ccccc1-c1cnc2[nH]cc(-c3ccnc(N)n3)c2c1
CDK2/Cyclin A2
  IC50: 75 nM
CDK9/cyclin T1
  IC50: 213 nM
[1]
  inhibition: 79.3%
[2]
  inhibition: 70.4%

## Nc1nccc(-c2c[nH]c3ncc(-c4cc5ccccc5s4)cc23)n1
CDK2/Cyclin A2
  IC50: 12 nM
CDK9/cyclin T1
  IC50: 82 nM
[1]
  inhibition: 92%
[2]
  inhibition: 86.4%

## Nc1nccc(-c2c[nH]c3ncc(-c4cc5ccccc5o4)cc23)n1
CDK2/Cyclin A2
  IC50: 23 nM
CDK9/cyclin T1
  IC50: 93 nM
[1]
  inhibition: 87.9%
[2]
  inhibition: 85%

## Nc1nccc(-c2c[nH]c3ncc(-c4ccc(Cl)cc4)cc23)n1
HCT-116
  IC50: 500 nM
SH-SY5Y
  IC50: 900 nM
[3]
  solubility thermodynamic: 57.4 µg/mL (≈ 178 µM)
[4]
  solubility thermodynamic: 120 µg/mL (≈ 373 µM)
[5]
  solubility thermodynamic: 74.4 µg/mL (≈ 231 µM)
[6]
  solubility thermodynamic: 113 µg/mL (≈ 352 µM)

## COc1ccc(CCNc2nccc(-c3c[nH]c4ncccc34)n2)cc1OC
CDK2/Cyclin A2
  IC50: 22 nM
CDK9/cyclin T1
  IC50: 59 nM
[1]
  inhibition: 89.2%
[2]
  inhibition: 85%

## c1cnc2[nH]cc(-c3ccnc(N4CCCCC4)n3)c2c1
CDK2/Cyclin A2
  IC50: 300 nM
CDK9/cyclin T1
  IC50: 800 nM
[1]
  inhibition: 74%
[2]
  inhibition: 71.9%

## COc1ccc2[nH]c(-c3cnc4[nH]cc(-c5ccnc(N)n5)c4c3)cc2c1
CDK2/Cyclin A2
  IC50: 16 nM
CDK9/cyclin T1
  IC50: 342 nM
[1]
  inhibition: 90.2%
[2]
  inhibition: 82.4%

## Nc1nccc(-c2cn(S(=O)(=O)c3ccc(F)cc3)c3ncccc23)n1
[1]
  inhibition: 22.6%
[2]
  inhibition: 40%

## Nc1nccc(-c2c[nH]c3ncccc23)n1 [MERIOLIN 1]
HCT-116
  IC50: 1800 nM
CDK9/cyclin T1
  IC50: 30 nM
[3]
  solubility thermodynamic: 95.8 µg/mL (≈ 454 µM)
[4]
  solubility thermodynamic: 89 µg/mL (≈ 421 µM)
[5]
  solubility thermodynamic: 352 µg/mL (≈ 1670 µM)
[6]
  solubility thermodynamic: 87.7 µg/mL (≈ 415 µM)
[7]
  concentration at […]: 167 ng/mL
[8]
  concentration at 0.25 h: 34.1 ng/mL
[9]
  concentration at 0.5 h: 12.6 ng/mL
[10]
  concentration at 1 h: 4.5 ng/mL
[11]
  concentration at 2 h: 1 ng/mL
[12]
  concentration at 4 h: 0.8 ng/mL
[13]
  C0: 230 ng/mL
[14]
  AUC(0-t): 46.2 ng·h/mL
[15]
  half-life: 28.2 min
[16]
  Vd: 36.5 L/kg
[17]
  clearance: 897 mL/min/kg
[18]
  AUC(0-inf): 46.9 ng·h/mL
MDA-MB-231
  IC50: 6000 nM
MDA-MB-468
  IC50: 13000 nM
T47D
  IC50: 8000 nM
BT-549
  IC50: 7000 nM
MCF7
  IC50: 6000 nM
4T1
  IC50: 2500 nM
[19]
  IC50: 36000 nM

## Nc1nccc(-c2c[nH]c3ncc(-c4cccc(C(F)(F)F)c4)cc23)n1
CDK2/Cyclin A2
  IC50: 10 nM
CDK9/cyclin T1
  IC50: 47 nM
[1]
  inhibition: 93.4%
[2]
  inhibition: 86.5%

## CC(=O)Nc1ccc(S(=O)(=O)n2cc(-c3ccnc(N)n3)c3cccnc32)cc1
[1]
  inhibition: 36.3%
[2]
  inhibition: 44.2%

## Nc1nccc(-c2cn(S(=O)(=O)c3ccc(OC(F)(F)F)cc3)c3ncccc23)n1
[1]
  inhibition: 31.3%
[2]
  inhibition: 54.4%

## c1cnc2[nH]cc(-c3ccnc(N4CCCC4)n3)c2c1
CDK2/Cyclin A2
  IC50: 160 nM
CDK9/cyclin T1
  IC50: 450 nM
[1]
  inhibition: 78.3%
[2]
  inhibition: 77.2%

## Nc1nccc(-c2cn(S(=O)(=O)c3ccc4c(c3)OCCO4)c3ncccc23)n1
[1]
  inhibition: 48.7%
[2]
  inhibition: 52.2%

## Nc1nccc(-c2c[nH]c3ncc(-c4ccoc4)cc23)n1
HCT-116
  IC50: 700 nM
SH-SY5Y
  IC50: 900 nM
[3]
  solubility thermodynamic: 20 µg/mL (≈ 72.1 µM)
[4]
  solubility thermodynamic: 10 µg/mL (≈ 36.1 µM)
[5]
  solubility thermodynamic: 800 µg/mL (≈ 2890 µM)
[6]
  solubility thermodynamic: 1 µg/mL (≈ 3.61 µM)
